Results reported in patent publication US10035790B2, “RORγ modulators” (BRISTOL-MYERS SQUIBB COMPANY, priority 2012, dated 2018).

molecular target: T1, ligand binding domain of human RORγ (A262-S507) (Homo sapiens, UniProt P51449); assay: General RORγ SPA binding assay (competition with [3H]25-hydroxycholesterol); conditions: RORγ SPA binding assay, inhibition of [3H]25-hydroxycholesterol binding; read-out: IC50
T1 construct: made in house; host or cells: E. coli
T1 sequence (P51449 262-507): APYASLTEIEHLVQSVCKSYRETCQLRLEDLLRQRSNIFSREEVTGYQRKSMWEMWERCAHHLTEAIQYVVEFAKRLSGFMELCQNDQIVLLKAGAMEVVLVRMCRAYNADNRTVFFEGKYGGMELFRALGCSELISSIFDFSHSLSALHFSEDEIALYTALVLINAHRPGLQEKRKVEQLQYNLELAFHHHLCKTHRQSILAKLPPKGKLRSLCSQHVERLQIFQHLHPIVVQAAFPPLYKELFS
Procedure, shortened: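 N-terminally His-tagged protein was expressed in E. coli and nickel-purified. Then 50 nM protein was preincubated with compound for 15 min at room temperature in PBS with 0.5% fatty acid free BSA, followed by radioligand for 15 min and copper His-tag SPA beads for 30 min. IC50 came from percent inhibition of binding.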

Structure (SMILES) | IC50 [nM]
COc1nc(C)c(-c2nnc(-c3cccc(C(F)(F)F)n3)o2)c(C2CCN(C(=O)Nc3c(F)cccc3F)CC2)n1 [Compound C60, N-(2,6-Difluorophenyl)-4-[6-methyl-2-(methyloxy)-5-{5-[6-(trifluoromethyl)pyridin-2-yl]-1,3,4-oxadiazol-2-yl}pyrimidin-4-yl]piperidine-1-carboxamide] | 204
COc1nc(C)c(-c2nnc(-c3ccnc(C(F)(F)F)n3)o2)c(C2CCN(C(=O)Nc3c(F)cccc3F)CC2)n1 [Compound C61, N-(2,6-Difluorophenyl)-4-[6-methyl-2-(methyloxy)-5-{5-[2-(trifluoromethyl)pyrimidin-4-yl]-1,3,4-oxadiazol-2-yl}pyrimidin-4-yl]piperidine-1-carboxamide] | 1140
Cc1ncc(-c2nnc(-c3ccnc(C(F)(F)F)n3)o2)c(C2CCN(C(=O)Cc3c(F)cccc3F)CC2)n1 [Compound C62, 4-{1-[(2,6-difluorophenyl)acetyl]piperidin-4-yl}-2-methyl-5-{5-[2-(trifluoromethyl)pyrimidin-4-yl]-1,3,4-oxadiazol-2-yl}pyrimidine] | 157
Cc1nc(C)c(-c2nc(-c3cccc(C(F)(F)F)c3)no2)c(C2CCN(C(=O)Nc3c(F)cccc3F)CC2)n1 [Compound C63, N-(2,6-difluorophenyl)-4-(2,6-dimethyl-5-{3-[3-(trifluoromethyl)phenyl]-1,2,4-oxadiazol-5-yl}pyrimidin-4-yl)piperidine-1-carboxamide] | 281
Cc1nc(C)c(-c2nc(-c3cccc(C(F)(F)F)c3)no2)c(C2CCN(C(=O)Nc3c(F)cccc3C(F)(F)F)CC2)n1 [Compound C64, 4-(2,6-Dimethyl-5-{3-[3-(trifluoromethyl)phenyl]-1,2,4-oxadiazol-5-yl}pyrimidin-4-yl)-N-[2-fluoro-6-(trifluoromethyl)phenyl]piperidine-1-carboxamide] | 183
Cc1nc(C)c(-c2nc(-c3cccc(C(F)(F)F)c3)no2)c(C2CCN(C(=O)c3c(F)cccc3F)CC2)n1 [Compound C65, 4-{1-[(2,6-Difluorophenyl)carbonyl]piperidin-4-yl}-2,6-dimethyl-5-{3-[3-(trifluoromethyl)phenyl]-1,2,4-oxadiazol-5-yl}pyrimidine] | 2730
Cc1nc(C)c(-c2ncc(-c3cccc(Cl)c3)o2)c(C2CCN(C(=O)Cc3c(F)cccc3F)CC2)n1 [Compound C66, 5-[5-(3-Chlorophenyl)-1,3-oxazol-2-yl]-4-{1-[(2,6-difluorophenyl)acetyl]piperidin-4-yl}-2,6-dimethylpyrimidine] | 65.9
Cc1nc(C)c(-c2ncc(-c3cccc(Cl)c3)o2)c(C2CCN(C(=O)Nc3c(F)cccc3F)CC2)n1 [Compound C67, 4-{5-[5-(3-Chlorophenyl)-1,3-oxazol-2-yl]-2,6-dimethylpyrimidin-4-yl}-N-(2,6-difluorophenyl)piperidine-1-carboxamide] | 111
Cc1nc(C)c(-c2ncc(-c3ccnc(C(F)(F)F)n3)o2)c(C2CCN(C(=O)Nc3c(F)cccc3F)CC2)n1 [Compound C68, N-(2,6-Difluorophenyl)-4-(2,6-dimethyl-5-{5-[2-(trifluoromethyl)pyrimidin-4-yl]-1,3-oxazol-2-yl}pyrimidin-4-yl)piperidine-1-carboxamide] | 102
Cc1nc(N)nc(C2CCN(C(=O)Nc3c(F)cccc3F)CC2)c1-c1ncc(-c2ccnc(C(F)(F)F)n2)o1 [Compound C69, 4-(2-amino-6-methyl-5-{5-[2-(trifluoromethyl)pyrimidin-4-yl]-1,3-oxazol-2-yl}pyrimidin-4-yl)-N-(2,6-difluorophenyl)piperidine-1-carboxamide] | 30.8
Cc1nc(N)nc(C2CCN(C(=O)Nc3c(F)cccc3F)CC2)c1-c1cnc(-c2ccnc(C(F)(F)F)n2)o1 [Compound C70, 4-(2-Amino-6-methyl-5-{2-[2-(trifluoromethyl)pyrimidin-4-yl]-1,3-oxazol-5-yl}pyrimidin-4-yl)-N-(2,6-difluorophenyl)piperidine-1-carboxamide] | 108
Cc1nc(N)nc(C2CCN(C(=O)Nc3ccccc3Cl)CC2)c1-c1nnc(-c2ccnc(C(F)(F)F)n2)o1 [Compound C71, 4-(2-Amino-6-methyl-5-{5-[2-(trifluoromethyl)pyrimidin-4-yl]-1,3,4-oxadiazol-2-yl}pyrimidin-4-yl)-N-(2-chlorophenyl)piperidine-1-carboxamide] | 30.2

The next lines start with the values.

IC50 [nM] | Structure (SMILES)
2.6 | Cc1ncc(C(C)(O)CNc2cccc(Cl)c2)c(C2CCN(C(=O)Cc3c(F)cccc3F)CC2)n1 (stereo not drawn) [Compound D1, 1-(4-(5-(1-(3-Chlorophenylamino)-2-hydroxypropan-2-yl)-2-methylpyrimidin-4-yl)piperidin-1-yl)-2-(2,6-difluorophenyl)ethanone]
3.9 | Cc1ncc(C(C)(O)CNc2cccc(C(F)(F)F)n2)c(C2CCN(C(=O)Cc3c(F)cccc3F)CC2)n1 (stereo not drawn) [Compound D2, 2-(2,6-difluorophenyl)-1-(4-(5-(2-hydroxy-1-((6-(trifluoromethyl)pyridin-2-yl)amino)propan-2-yl)-2-methylpyrimidin-4-yl)piperidin-1-yl)ethanone]
5 | Cc1cc(C)cc(NCC(C)(O)c2cnc(C)nc2C2CCN(C(=O)Cc3c(F)cccc3F)CC2)c1 (stereo not drawn) [Compound D3, 2-(2,6-difluorophenyl)-1-(4-(5-(1-((3,5-dimethylphenyl)amino)-2-hydroxypropan-2-yl)-2-methylpyrimidin-4-yl)piperidin-1-yl)ethanone]
6.1 | Cc1ncc(C(C)(O)CNc2cccc(C(F)(F)F)c2)c(C2CCN(C(=O)Cc3c(F)cccc3F)CC2)n1 (stereo not drawn) [Compound D4, 2-(2,6-difluorophenyl)-1-(4-(5-(2-hydroxy-1-((3-(trifluoromethyl)phenyl)amino)propan-2-yl)-2-methylpyrimidin-4-yl)piperidin-1-yl)ethanone]
8.4 | Cc1ncc(C(C)(O)CNc2ccnc(C(F)(F)F)n2)c(C2CCN(C(=O)Cc3c(F)cccc3F)CC2)n1 (stereo not drawn) [Compound D5, 2-(2,6-difluorophenyl)-1-(4-(5-(2-hydroxy-1-((2-(trifluoromethyl)pyrimidin-4-yl)amino)propan-2-yl)-2-methylpyrimidin-4-yl)piperidin-1-yl)ethanone]
23.3 | Cc1cc(C)nc(NCC(C)(O)c2cnc(C)nc2C2CCN(C(=O)Cc3c(F)cccc3F)CC2)c1 (stereo not drawn) [Compound D6, 2-(2,6-difluorophenyl)-1-(4-(5-(1-((4,6-dimethylpyridin-2-yl)amino)-2-hydroxypropan-2-yl)-2-methylpyrimidin-4-yl)piperidin-1-yl)ethanone]
80 | Cc1ncc(C(C)(O)CNc2ccnc(Cl)c2)c(C2CCN(C(=O)Cc3c(F)cccc3F)CC2)n1 (stereo not drawn) [Compound D7, 1-(4-(5-(1-((2-chloropyridin-4-yl)amino)-2-hydroxypropan-2-yl)-2-methylpyrimidin-4-yl)piperidin-1-yl)-2-(2,6-difluorophenyl)ethanone]
105 | Cc1ncc(C(C)(O)CNc2cc(C(F)(F)F)ccn2)c(C2CCN(C(=O)Cc3c(F)cccc3F)CC2)n1 (stereo not drawn) [Compound D8, 2-(2,6-difluorophenyl)-1-(4-(5-(2-hydroxy-1-((4-(trifluoromethyl)pyridin-2-yl)amino)propan-2-yl)-2-methylpyrimidin-4-yl)piperidin-1-yl)ethanone]
118 | Cc1ccnc(NCC(C)(O)c2cnc(C)nc2C2CCN(C(=O)Cc3c(F)cccc3F)CC2)c1 (stereo not drawn) [Compound D9, 2-(2,6-difluorophenyl)-1-(4-(5-(2-hydroxy-1-((4-methylpyridin-2-yl)amino)propan-2-yl)-2-methylpyrimidin-4-yl)piperidin-1-yl)ethanone]
4380 | Cc1ncc(C(C)(O)CNc2ccn(C)n2)c(C2CCN(C(=O)Cc3c(F)cccc3F)CC2)n1 (stereo not drawn) [Compound D10, 2-(2,6-difluorophenyl)-1-(4-(5-(2-hydroxy-1-((1-methyl-1H-pyrazol-3-yl)amino)propan-2-yl)-2-methylpyrimidin-4-yl)piperidin-1-yl)ethanone]
14.5 | Cc1cc(C)cc(OCC(C)(O)c2cnc(C)nc2C2CCN(C(=O)Cc3c(F)cccc3F)CC2)c1 (stereo not drawn) [Compound D11, 2-(2,6-Difluorophenyl)-1-(4-(5-(1-(3,5-dimethylphenoxy)-2-hydroxypropan-2-yl)-2-methylpyrimidin-4-yl)piperidin-1-yl)ethanone]
6.2 | Cc1ncc(C(C)(O)COc2cccc(Cl)c2)c(C2CCN(C(=O)Cc3c(F)cccc3F)CC2)n1 (stereo not drawn) [Compound D12, 1-(4-(5-(1-(3-chlorophenoxy)-2-hydroxypropan-2-yl)-2-methylpyrimidin-4-yl)piperidin-1-yl)-2-(2,6-difluorophenyl)ethanone]
8.9 | Cc1ncc(C(C)(O)COc2cncc(Cl)c2)c(C2CCN(C(=O)Cc3c(F)cccc3F)CC2)n1 (stereo not drawn) [Compound D13, 1-(4-(5-(1-((5-chloropyridin-3-yl)oxy)-2-hydroxypropan-2-yl)-2-methylpyrimidin-4-yl)piperidin-1-yl)-2-(2,6-difluorophenyl)ethanone]
481 | Cc1ncc(C(C)(O)COc2cccnc2)c(C2CCN(C(=O)Cc3c(F)cccc3F)CC2)n1 (stereo not drawn) [Compound D14, 2-(2,6-difluorophenyl)-1-(4-(5-(2-hydroxy-1-(pyridin-3-yloxy)propan-2-yl)-2-methylpyrimidin-4-yl)piperidin-1-yl)ethanone]
33.9 | Cc1cc(C)cc(CCC(C)(O)c2cnc(C)nc2C2CCN(C(=O)Cc3c(F)cccc3F)CC2)c1 (stereo not drawn) [Compound D15, 2-(2,6-Difluorophenyl)-1-(4-(5-(4-(3,5-dimethylphenyl)-2-hydroxybutan-2-yl)-2-methylpyrimidin-4-yl)piperidin-1-yl)ethanone]
